The supplement of paper PMC10307832

Experiments:
Test in all cases: relative viability (nuclei count vs DMSO), 5 days (fraction); higher = more cells survive
BEN = system: BEN
How it was run: (§1)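 One day after seeding in 1536-well plates, lung cancer cell lines were dosed by pin tool. Dosing was either single-drug or a fixed anchor-drug dose plus five library-drug doses (not always all listed) in √10 steps. After 5 days, nuclei were stained in one fix-and-stain step and counted on 4× images, and relative viability is the nuclei count of treated wells over that of vehicle wells, given as the median of duplicate plates.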

EKVX = system: EKVX
How it was run: as §1

HCC-366 = system: HCC-366
How it was run: as §1

HCC-44 = system: HCC-44
How it was run: as §1

LOU-NH91 = system: LOU-NH91
How it was run: as §1

LU99A = system: LU99A
How it was run: as §1

NCI-H1355 = system: NCI-H1355
How it was run: as §1

NCI-H1395 = system: NCI-H1395
How it was run: as §1

NCI-H1437 = system: NCI-H1437
How it was run: as §1

NCI-H1650 = system: NCI-H1650
How it was run: as §1

NCI-H1651 = system: NCI-H1651
How it was run: as §1

NCI-H1734 = system: NCI-H1734
How it was run: as §1

NCI-H1755 = system: NCI-H1755
How it was run: as §1

NCI-H1975 = system: NCI-H1975
How it was run: as §1

NCI-H2023 = system: NCI-H2023
How it was run: as §1

NCI-H2085 = system: NCI-H2085
How it was run: as §1

NCI-H2342 = system: NCI-H2342
How it was run: as §1

NCI-H358 = system: NCI-H358
How it was run: as §1

NCI-H441 = system: NCI-H441
How it was run: as §1

NCI-H460 = system: NCI-H460
How it was run: as §1

NCI-H838 = system: NCI-H838
How it was run: as §1

CC1(C)CCC(c2ccc(Cl)cc2)=C(CN2CCN(c3ccc(C(=O)NS(=O)(=O)c4ccc(N[C@H](CCN5CCOCC5)CSc5ccccc5)c(S(=O)(=O)C(F)(F)F)c4)cc3)CC2)C1 [Navitoclax] + Nc1ncn([C@H]2C[C@H](O)[C@@H](CO)O2)c(=O)n1 [Decitabine] (partner 2 µM)
relative viability (BEN; first compound 0.005 µM): 0.784
relative viability (BEN; first compound 0.01581 µM): 0.803
relative viability (BEN; first compound 0.05 µM): 0.734
relative viability (BEN; first compound 0.1581 µM): 0.712
relative viability (BEN; first compound 0.5 µM): 0.443
relative viability (EKVX; first compound 0.005 µM): 0.372
relative viability (EKVX; first compound 0.01581 µM): 0.428
relative viability (EKVX; first compound 0.05 µM): 0.361
relative viability (EKVX; first compound 0.1581 µM): 0.285
relative viability (EKVX; first compound 0.5 µM): 0.343
relative viability (HCC-366; first compound 0.005 µM): 0.34
relative viability (HCC-366; first compound 0.01581 µM): 0.4
relative viability (HCC-366; first compound 0.1581 µM): 0.332
relative viability (HCC-366; first compound 0.5 µM): 0.365
relative viability (HCC-44; first compound 0.005 µM): 0.921
relative viability (HCC-44; first compound 0.01581 µM): 0.867
relative viability (HCC-44; first compound 0.05 µM): 0.903
relative viability (HCC-44; first compound 0.1581 µM): 0.861
relative viability (HCC-44; first compound 0.5 µM): 0.898
relative viability (LOU-NH91; first compound 0.005 µM): 0.798
relative viability (LOU-NH91; first compound 0.01581 µM): 0.88
relative viability (LOU-NH91; first compound 0.05 µM): 0.79
relative viability (LOU-NH91; first compound 0.1581 µM): 0.711
relative viability (LOU-NH91; first compound 0.5 µM): 0.391
relative viability (LU99A; first compound 0.005 µM): 0.876
relative viability (LU99A; first compound 0.01581 µM): 0.977
relative viability (LU99A; first compound 0.1581 µM): 0.921
relative viability (LU99A; first compound 0.5 µM): 0.989
relative viability (NCI-H1355; first compound 0.005 µM): 0.338
relative viability (NCI-H1355; first compound 0.01581 µM): 0.372
relative viability (NCI-H1355; first compound 0.05 µM): 0.369
relative viability (NCI-H1355; first compound 0.1581 µM): 0.355
relative viability (NCI-H1355; first compound 0.5 µM): 0.347
relative viability (NCI-H1395; first compound 0.005 µM): 0.706
relative viability (NCI-H1395; first compound 0.01581 µM): 0.701
relative viability (NCI-H1395; first compound 0.05 µM): 0.724
relative viability (NCI-H1395; first compound 0.1581 µM): 0.713
relative viability (NCI-H1395; first compound 0.5 µM): 0.699
relative viability (NCI-H1437; first compound 0.005 µM): 0.549
relative viability (NCI-H1437; first compound 0.01581 µM): 0.547
relative viability (NCI-H1437; first compound 0.05 µM): 0.619
relative viability (NCI-H1437; first compound 0.1581 µM): 0.519
relative viability (NCI-H1437; first compound 0.5 µM): 0.581
relative viability (NCI-H1650; first compound 0.005 µM): 0.43
relative viability (NCI-H1650; first compound 0.01581 µM): 0.424
relative viability (NCI-H1650; first compound 0.05 µM): 0.399
relative viability (NCI-H1650; first compound 0.1581 µM): 0.364
relative viability (NCI-H1650; first compound 0.5 µM): 0.334
relative viability (NCI-H1651; first compound 0.005 µM): 0.797
relative viability (NCI-H1651; first compound 0.01581 µM): 0.591
relative viability (NCI-H1651; first compound 0.05 µM): 0.42
relative viability (NCI-H1651; first compound 0.1581 µM): 0.628
relative viability (NCI-H1651; first compound 0.5 µM): 0.644
relative viability (NCI-H1734; first compound 0.005 µM): 0.51
relative viability (NCI-H1734; first compound 0.01581 µM): 0.512
relative viability (NCI-H1734; first compound 0.1581 µM): 0.5
relative viability (NCI-H1734; first compound 0.5 µM): 0.465
relative viability (NCI-H1755; first compound 0.005 µM): 0.664
relative viability (NCI-H1755; first compound 0.01581 µM): 0.727
relative viability (NCI-H1755; first compound 0.05 µM): 0.611
relative viability (NCI-H1755; first compound 0.1581 µM): 0.677
relative viability (NCI-H1755; first compound 0.5 µM): 0.697
relative viability (NCI-H1975; first compound 0.005 µM): 0.432
relative viability (NCI-H1975; first compound 0.01581 µM): 0.392
relative viability (NCI-H1975; first compound 0.05 µM): 0.261
relative viability (NCI-H1975; first compound 0.1581 µM): 0.416
relative viability (NCI-H1975; first compound 0.5 µM): 0.29
relative viability (NCI-H2023; first compound 0.005 µM): 0.22
relative viability (NCI-H2023; first compound 0.01581 µM): 0.248
relative viability (NCI-H2023; first compound 0.05 µM): 0.188
relative viability (NCI-H2023; first compound 0.1581 µM): 0.191
relative viability (NCI-H2023; first compound 0.5 µM): 0.229
relative viability (NCI-H2085; first compound 0.005 µM): 0.612
relative viability (NCI-H2085; first compound 0.01581 µM): 0.695
relative viability (NCI-H2085; first compound 0.05 µM): 0.474
relative viability (NCI-H2085; first compound 0.1581 µM): 0.579
relative viability (NCI-H2085; first compound 0.5 µM): 0.562
relative viability (NCI-H2342; first compound 0.005 µM): 0.799
relative viability (NCI-H2342; first compound 0.01581 µM): 0.764
relative viability (NCI-H2342; first compound 0.05 µM): 0.653
relative viability (NCI-H2342; first compound 0.1581 µM): 0.679
relative viability (NCI-H2342; first compound 0.5 µM): 0.713
relative viability (NCI-H358; first compound 0.005 µM): 0.234
relative viability (NCI-H358; first compound 0.01581 µM): 0.225
relative viability (NCI-H358; first compound 0.05 µM): 0.206
relative viability (NCI-H358; first compound 0.1581 µM): 0.213
relative viability (NCI-H358; first compound 0.5 µM): 0.187
relative viability (NCI-H441; first compound 0.005 µM): 0.255
relative viability (NCI-H441; first compound 0.01581 µM): 0.217
relative viability (NCI-H441; first compound 0.05 µM): 0.207
relative viability (NCI-H441; first compound 0.1581 µM): 0.2
relative viability (NCI-H441; first compound 0.5 µM): 0.237
relative viability (NCI-H460; first compound 0.005 µM): 0.481
relative viability (NCI-H460; first compound 0.01581 µM): 0.523
relative viability (NCI-H460; first compound 0.05 µM): 0.234
relative viability (NCI-H460; first compound 0.1581 µM): 0.411
relative viability (NCI-H460; first compound 0.5 µM): 0.444
relative viability (NCI-H838; first compound 0.005 µM): 0.457
relative viability (NCI-H838; first compound 0.01581 µM): 0.506
relative viability (NCI-H838; first compound 0.05 µM): 0.47
relative viability (NCI-H838; first compound 0.1581 µM): 0.423
relative viability (NCI-H838; first compound 0.5 µM): 0.46
